The values that follow come from ChEMBL document CHEMBL5614428, “Synthesis and antibacterial activities of heterocyclic ring-fused 20(S)-protopanaxadiol derivatives” (Bioorg Med Chem, 2024).

Converted amounts (≈) assume the structure as drawn. The source made the active and inactive calls. The calls are words filed in the database; no cut-off is given here.

As a reminder, the MIC is the lowest concentration found to suppress growth.

For data set [1], the system named is Staphylococcus aureus. Put plainly: Antibacterial activity against Staphylococcus aureus Newman assessed as inhibition of bacterial growth incubated for 18 hrs by two fold serial dilution assay. It counts as functional.
Data set [2] concerns Staphylococcus aureus. The experiment in a line: Antibacterial activity against methicillin-resistant Staphylococcus aureus USA300 assessed as inhibition of bacterial growth incubated for 18 hrs by two fold serial dilution assay. It counts as functional.
Data set [3] relates to Staphylococcus aureus. Put plainly: Antibacterial activity against methicillin-resistant Staphylococcus aureus NRS-1 assessed as inhibition of bacterial growth incubated for 18 hrs by two fold serial dilution assay. It counts as functional.
Data set [4] deals with Staphylococcus aureus. Put plainly: Antibacterial activity against methicillin-resistant Staphylococcus aureus NRS-70 assessed as inhibition of bacterial growth incubated for 18 hrs by two fold serial dilution assay. It counts as functional.
In data set [5] the test system is Staphylococcus aureus. The experiment in a line: Antibacterial activity against methicillin-resistant Staphylococcus aureus NRS-100 assessed as inhibition of bacterial growth incubated for 18 hrs by two fold serial dilution assay. It counts as functional.
Data set [6] concerns Staphylococcus aureus. Put plainly: Antibacterial activity against methicillin-resistant Staphylococcus aureus NRS-108 assessed as inhibition of bacterial growth incubated for 18 hrs by two fold serial dilution assay. It counts as functional.
Data set [7] relates to Staphylococcus aureus. Put plainly: Antibacterial activity against methicillin-resistant Staphylococcus aureus NRS-271 assessed as inhibition of bacterial growth incubated for 18 hrs by two fold serial dilution assay. It counts as functional.
The test system of data set [8] is Staphylococcus aureus. Put plainly: Antibacterial activity against methicillin-resistant Staphylococcus aureus XJ017 assessed as inhibition of bacterial growth incubated for 18 hrs by two fold serial dilution assay. It counts as functional.
Data set [9] deals with Staphylococcus aureus. The experiment in a line: Antibacterial activity against methicillin-resistant Staphylococcus aureus XJ036 assessed as inhibition of bacterial growth incubated for 18 hrs by two fold serial dilution assay. It counts as functional.
Data set [10] concerns Staphylococcus aureus. Put plainly: Antibacterial activity against methicillin-resistant Staphylococcus aureus USA300 assessed as fold increase in inhibition of bacterial growth incubated for 18 hrs by two fold serial dilution assay relative to (S)-4-((1S,3aR,3bR,5aR,13aR,13bR,15R,15aR)-15-hydroxy-3a,3b,6,6,13a-pentamethyl-2,3,3a,3b,4,5,5a,6,13,13a,13b,14,15,15a-tetradecahydro-1H-cyclopenta[5,6]naphtho[1,2-b]phenazin-1-yl)pentane-1,4-diol. It counts as functional.

Data set [11] can be described thus: Toxicity in Zebrafish at 25 to 75 mg/kg,ip administration measured upto 120 hrs. It counts as organism-based, Danio rerio. Conditions: in vivo, dose 25-75 mg/kg.
Data set [12] has as its system Staphylococcus aureus. Put plainly: Antibacterial activity against methicillin-resistant Staphylococcus aureus USA300 infected in zebrafish assessed as increase in survival rate at 50 mg/kg,ip administration measured for 5 days relative to Vancomycin. It counts as functional, organism-based. Conditions: time 5.0 day.
Data set [13] relates to Staphylococcus aureus. Put plainly: Antibacterial activity against methicillin-resistant Staphylococcus aureus USA300 infected in zebrafish assessed as increase in survival rate at 25 mg/kg,ip administration measured for 5 days. It counts as functional, organism-based. To be noted: time 5.0 day.
Data set [14] relates to Staphylococcus aureus. Put plainly: Antibacterial activity against Staphylococcus aureus Newman assessed as fold increase in inhibition of bacterial growth incubated for 18 hrs by two fold serial dilution assay relative to (S)-4-((1S,3aR,3bR,5aR,12aR,12bR,14R,14aR)-14-hydroxy-3a,3b,6,6,12a-pentamethyl-1,2,3,3a,3b,4,5,5a,6,7,12,12a,12b,13,14,14a-hexadecahydrocyclopenta[5,6]naphtho[2,1-b]carbazol-1-yl)pentane-1,4-diol. It counts as functional.

On to `CC1(C)c2nc3ccccc3nc2C[C@]2(C)[C@H]3C[C@@H](O)[C@@H]4[C@@H]([C@@](C)(O)CCC(N)=O)CC[C@@]4(C)[C@]3(C)CC[C@@H]12`, for which the MIC in data set [1], in data set [2], in data set [3], in data set [4], in [5] and in data set [6] was 4 µg/mL (≈ 7.49 µM) in each case. For the same molecule, the minimal inhibitory concentration (MIC) in data set [7], in [8] and in data set [9] was 4 µg/mL (≈ 7.49 µM) in each case. Besides, the “fold change (FC)” value in data set [10] came to 2.
Consider `CC1(C)c2nc3ccccc3nc2C[C@]2(C)[C@H]3C[C@@H](O)[C@@H]4[C@@H]([C@@](C)(O)CCC(=O)Nc5nccs5)CC[C@@]4(C)[C@]3(C)CC[C@@H]12`, for which the MIC was 1 µg/mL (≈ 1.62 µM) in [1]; 1 µg/mL (≈ 1.62 µM) in data set [2]; 1 µg/mL (≈ 1.62 µM) in data set [3]; 1 µg/mL (≈ 1.62 µM) in data set [4]; 4 µg/mL (≈ 6.48 µM) in data set [5]; 2 µg/mL (≈ 3.24 µM) in data set [6]. Besides, the MIC in data set [7] was 1 µg/mL (≈ 1.62 µM); in data set [8] it was 0.5 µg/mL (≈ 0.811 µM); in data set [9], 1 µg/mL (≈ 1.62 µM). Besides, the Activity entry in data set [11] is “Non-Toxic”. The result in data set [12] and in data set [13] was Active. Also, in data set [14], the “fold change (FC)” value is on record as 4.
Turning to `CNC(=O)CC[C@](C)(O)[C@H]1CC[C@]2(C)[C@@H]1[C@H](O)C[C@@H]1[C@@]3(C)Cc4nc5ccccc5nc4C(C)(C)[C@@H]3CC[C@]12C`, the MIC in data set [1] was 4 µg/mL (≈ 7.3 µM); in [2], 4 µg/mL (≈ 7.3 µM); in [3] it was 4 µg/mL (≈ 7.3 µM); in data set [4], 4 µg/mL (≈ 7.3 µM); in data set [5] it was 8 µg/mL (≈ 14.6 µM); in [6], 4 µg/mL (≈ 7.3 µM). Besides, the MIC was 8 µg/mL (≈ 14.6 µM) in data set [7], 16 µg/mL (≈ 29.2 µM) in data set [8] and 8 µg/mL (≈ 14.6 µM) in data set [9].
